Measurements: ChEMBL document CHEMBL3507680, “University of Dundee, Gates Library screen for HepG2 cell viability”

Experiment: Human HepG2 cell viability assay in 384 well format
Format: toxicity, cell-based
Parameters: dose 125 nL, time 70.5 hour; cytotoxicity at 70.5 h: concentration not given beside the values
Details: HepG2 cells, read-out: Inhibition

Row | SMILES | cytotoxicity at 70.5 h
1 | CCN(CC)S(=O)(=O)N1CCCC(c2ccc(C(=O)O)cc2)C1 (stereo not drawn) | -4.81%
2 | CN(C)S(=O)(=O)N1CCC2(CCCN(Cc3ccc(F)cc3)C2=O)C1 (stereo not drawn) | -2.15%
3 | CN(C)CCCn1ccnc1C1CCCN(c2cc(N)ncn2)C1 (stereo not drawn) | -4.4%
4 | CCn1nc(CC(C)C)cc1C(=O)NCCCOC | -0.898%
5 | CN(C)C(=O)N1C[C@@H]2CC[C@H](C1)N(Cc1ccc3nsnc3c1)C2 | -5.73%
6 | COc1cc(N2CCCC(c3nccn3CCN(C)C)C2)nc(N)n1 (stereo not drawn) | -8.19%
7 | Cc1ncsc1CCC(=O)NCc1cc2n(n1)CCN(C(=O)N(C)C)C2 | 13.9%
8 | O=C1N(CCCc2ccccc2)CCCC1(O)CNCc1ccccc1 (stereo not drawn) | -10.4%
9 | CCn1ccnc1-c1nc2cc(S(=O)(=O)N3CCCC3)ccc2n1C | -3.32%
10 | CN(C)C(=O)CN1C[C@@H]2CC[C@H](C1)N(C(=O)CCn1cncn1)C2 | -12.6%
11 | COc1cccc(C)c1C(=O)N1C[C@@H](CN(C)C)[C@@H](CO)C1 | -4.7%
12 | CCn1nc(C)c(CNC(=O)c2cn(CCC3CCCCN3)nn2)c1C (stereo not drawn) | -7.47%
13 | Cc1nc(CCCNC(=O)C2CC(=O)N(C3CC3)C2)sc1C (stereo not drawn) | 3.65%
14 | O=C(NCCc1ccncc1)C1CCN(Cc2ccco2)CC1 | 10.1%
15 | COc1cccn(CC(=O)N(C)CCOc2cc(C)cc(C)c2)c1=O | 2.11%
16 | CSc1ccccc1CN1CCCn2nc(CNC(=O)N(C)C)cc2C1 | -1.85%
17 | CCC1(CO)CCCN(c2ncccc2C#N)C1 (stereo not drawn) | 15.7%
18 | O=C1CCC2(CCN(Cc3cc(F)cc(F)c3)CC2)CN1CCO | -1.2%
19 | COCc1noc(-c2ccc(N3CCCCC3CO)nc2)n1 (stereo not drawn) | -6.84%
20 | COc1cnc(N2CCC(Oc3ccccc3OC)(C(=O)O)CC2)nc1 | -3.07%
21 | Nc1nccc(NCc2cc3n(n2)CCCN(C(=O)C2CCC2)C3)n1 | -6.62%

Row | SMILES | cytotoxicity at 70.5 h
22 | CSc1ncccc1C(=O)N1CCC(c2nc3c(C)cccc3[nH]2)CC1 | 12.8%
23 | COc1cccc(OCC2CCCN(C(=O)c3cnc(C)nc3O)C2)c1 (stereo not drawn) | -9.18%
24 | CC(C)N(C)C(=O)CN1CCCC(c2ccc(C(=O)O)cc2)C1 (stereo not drawn) | 32.3%
25 | CC(CN1CCOCC1)NCc1nncn1C1CCCCC1 (stereo not drawn) | -3.01%
26 | CN(Cc1noc(C2CC2)n1)C1CCN(Cc2ccccc2C#N)C1 (stereo not drawn) | 17.8%
27 | Cc1ncc(CN2CCC(N(C)Cc3noc(C4CC4)n3)C2)s1 (stereo not drawn) | 19%
28 | Cc1ccc(C(CNC(=O)NCc2ccccn2)N2CCOCC2)o1 (stereo not drawn) | 13.1%
29 | O=C1C(NCc2nnc3n2CCCC3)CCCN1c1ccccc1 (stereo not drawn) | -7.11%
30 | Cn1cc(CC2CCN(C(=O)NCc3cccc(C(N)=O)c3)C2)cn1 (stereo not drawn) | -13.1%
31 | CS(=O)(=O)NCC1CCCN(C(=O)COCC2CC2)C1 (stereo not drawn) | -22.4%
32 | Cc1ccccc1OCC(=O)N1CCCC(CNS(C)(=O)=O)C1 (stereo not drawn) | -5.65%
33 | O=C(NCc1nn(-c2ccccc2)c2c1CCC2)C1CC1 | -3.11%
34 | CCn1ccnc1CN1CCN(CC(O)CN2CCOCC2)CC1 (stereo not drawn) | -15.7%
35 | Cn1ccnc1CN1CCN(CC(O)c2ccccc2)CC1 (stereo not drawn) | -12.2%
36 | CCc1ocnc1C(=O)N1CCCC1c1noc(C(C)C)n1 (stereo not drawn) | -11%
37 | COC(=O)NCC(=O)NCc1nn(-c2ccccc2)c2c1CCC2 | -4.34%
38 | CCOc1cccc(CNC(=O)N2CCC(Cc3cnn(C)c3)C2)c1 (stereo not drawn) | -13.7%
39 | CCOc1ccccc1CNC(=O)N1CCC(Cc2cnn(C)c2)C1 (stereo not drawn) | 7.83%
40 | CS(=O)(=O)NC1CCCN(C(=O)COCc2ccccc2)C1 (stereo not drawn) | -10.6%
41 | CC(O)CN1CCC(CNCc2ccccc2F)CC1 (stereo not drawn) | -1.41%
42 | CC(O)CN1CCC(CNCc2ccccc2C(F)(F)F)CC1 (stereo not drawn) | 13.9%

Row | SMILES | cytotoxicity at 70.5 h
43 | CCc1ocnc1C(=O)N1CCCC1c1noc(C)n1 (stereo not drawn) | -5.19%
44 | Cc1cnn(CC2CCCN2Cc2c(C)noc2C)c1 (stereo not drawn) | -3.04%
45 | CCc1nc(C2CCCN2C(=O)c2cnns2)no1 (stereo not drawn) | -8.27%
46 | Cc1nc(C)n(C2CCCN(C(=O)c3cncnc3C)C2)n1 (stereo not drawn) | 2.45%
47 | Cc1ccc(C(C)C(=O)N2CCCN(Cc3cscn3)CC2)cc1 (stereo not drawn) | 5.25%
48 | O=C(Cc1ccccc1Cl)N1CCN(CC(O)COCCO)CC1 (stereo not drawn) | 1.21%
49 | CCn1ccnc1CN1CCCN(C(=O)c2ccnc(C)n2)CC1 | 14.4%
50 | Cc1ncsc1C(=O)NCc1ccnc(N2CCN(C)CC2)c1 | -7.54%
51 | CCN(CC)c1ccc(C(=O)N2CCC(c3nc(C)no3)CC2)cn1 | -7.84%
52 | NC(=O)Cn1cc(NC(=O)N2CCN(c3ccccc3)CC2)cn1 | -12.6%
53 | Cc1noc(C2CCN(C(=O)c3ccc(C(F)(F)F)nc3)CC2)n1 | -5.24%
54 | NC(=O)Cn1cc(NC(=O)N2CCSCC2)cn1 | 15.3%
55 | Cc1nc(CN2CCN(C(C)c3nc(C(C)C)no3)CC2)oc1C (stereo not drawn) | -0.487%
56 | Cc1cnn(CC2CN(CC(=O)Nc3nccs3)CCO2)c1 (stereo not drawn) | -2.45%
57 | Cc1cnn(CC2CN(CC(=O)Nc3nncs3)CCO2)c1 (stereo not drawn) | -1.53%
58 | CCOCC(O)CN1CCN(C(=O)Cc2cccc(Cl)c2)CC1 (stereo not drawn) | -5.95%
59 | Cc1nc2cc(=O)[nH]n2c(C)c1CC(=O)NCc1ccc(C#N)cc1 | -0.462%
60 | CNc1cc(N2CCCC2CNCc2csc(C)n2)ncn1 (stereo not drawn) | 6.11%
61 | Cc1nc(C)n(CC2CCCCN2CCc2ccncc2)n1 (stereo not drawn) | 16.8%
62 | CC(C)(C)c1n[nH]c(C2CN(C(=O)CCc3cccs3)CCO2)n1 (stereo not drawn) | -8.77%
63 | CCCc1n[nH]c(C2CN(C(=O)CCc3cscn3)CCO2)n1 (stereo not drawn) | -1.57%

Row | SMILES | cytotoxicity at 70.5 h
64 | Cc1noc(C(C)N2CCN(Cc3nc(C)c(C)o3)CC2)n1 (stereo not drawn) | -3.69%
65 | Cc1cc(C)n(CC2CCCN2CCS(C)(=O)=O)n1 (stereo not drawn) | -9.56%
66 | CCn1ccnc1CN1CCCN(C(=O)c2ccnn2C)CC1 | -3.84%
67 | CCCN1CCCC1Cn1nc(C)cc1C (stereo not drawn) | -3.07%
68 | CCc1ccc(C(=O)N2CCCC(n3nc(C)nc3C)C2)o1 (stereo not drawn) | 13.2%
69 | CC(Cc1ccco1)NC(=O)Nc1cccnc1 (stereo not drawn) | 2.87%
70 | COc1ccccc1OCCNCc1c(C(C)C)nn(C)c1N(C)C | 34.1%
71 | Cc1nc(C2CCCN2CC(=O)NCCOc2cccc(F)c2)no1 (stereo not drawn) | 19.2%
72 | O=C(c1cccnc1N1CCOCC1)N1CCCC(n2cncn2)C1 (stereo not drawn) | 18.2%
73 | CCc1nc(CC(=O)N2CCn3c(C)nnc3C2)cs1 | -6.05%
74 | COc1cc(CNCCc2cnn(C)c2)cc(OC)c1OC | 21.4%
75 | CC(C)c1nn(C)c(N(C)C)c1CNCc1cccnc1N(C)C | 0.645%
76 | Cc1cc(C)c(CNC(=O)NCC2CCCOC2)c(=O)[nH]1 (stereo not drawn) | -11.1%
77 | Cc1nc(C)n(CC2CCCN(CC(=O)Nc3nnc(C)s3)C2)n1 (stereo not drawn) | 17.5%
78 | Cc1nc(C)n(CC2CCCN(CC(=O)Nc3cc(C)on3)C2)n1 (stereo not drawn) | -2.38%
79 | CC(C)c1nnc2n1CCN(C(=O)Cc1csc(C(C)(C)C)n1)C2 | -8.69%
80 | CC(=O)c1ccc(OCC(=O)NS(=O)(=O)c2cccnc2)cc1 | 17.6%
81 | Cc1nnc2n1CCN(C(=O)c1cc(Cl)c(Br)[nH]1)C2 | -2.93%
82 | Cc1nc(CC(=O)N2CCn3c(nnc3C(C)C)C2)cs1 | -2.25%
83 | CC(C)c1nn(C)c(N(C)C)c1CNCc1ccccc1CO | 0.684%
